Assay results: patent publication US20260167614A1, “IDENTIFICATION OF SMALL MOLECULES THAT RECRUIT AND ACTIVATE RNASE L” (UNIVERSITY OF FLORIDA RESEARCH FOUNDATION, INCORPORATED, priority 2022, published 2026)

How the values were obtained:
pre-miR-21 = assay: Binding affinity measurement by intrinsic fluorescence; settings: WT pre-miR-21
Experimental: Binding Affinity Measurements. Binding assays were completed as previously described.8 Briefly, WT pre-miR-21 (5′-[…]-3′) or a mutant pre-miR-21 with the A-bulge and U-bulges replaced with base pairs (5′-[…]-3′) was folded in 1× Assay Buffer (8 mM Na2HPO4, pH 7.0, 185 mM NaCl, and 1 mM EDTA) by heating at 95° C. for 1 min followed by cooling on ice for 10 min. After cooling, BSA was added to a final concentration of 40 μg/mL. RiboTAC 7 was then added to the solution to a final concentration of 0.5 μM. The RNA solution was serial diluted with 1× Assay Buffer supplemented with 40 μg/mL BSA and 0.5 μM of 7. The solutions were incubated in the dark for 30 min at room temperature before being transferred to a black 384-well plate (Corning 4514, low-volume, non-binding) Fluorescence intensity was measured using a Tecan infinite M1000 Pro (Gain: 100) with excitation wavelength of 380 nm and emission wavelength of 425 nm. Binding affinity was calculated using Equation 1, as previously described:8
where I and I0 are the measured fluorescence intensity of compound with or without RNA, respectively, Δε is the difference between the fluorescence intensity with infinite concentration of RNA versus without RNA, [FL]0 and [RNA]0 are the concentrations of small molecule and RNA, respectively, and Kd is the dissociation constant.

pre-miR-21 and RNase L = target: T1, pre-miR-21 and RNase L (Homo sapiens, UniProt Q05823, H672N); assay: Co-immunoprecipitation of pre-miR-21 and RNase L; assay type: binding; settings: WT 32P-pre-miR-21, inactive RNase L
T1 construct: GST (N, cleaved yes); made in house; host or cells: BL21 AI Escherichia coli
T1 sequence (Q05823 1-741 H672N): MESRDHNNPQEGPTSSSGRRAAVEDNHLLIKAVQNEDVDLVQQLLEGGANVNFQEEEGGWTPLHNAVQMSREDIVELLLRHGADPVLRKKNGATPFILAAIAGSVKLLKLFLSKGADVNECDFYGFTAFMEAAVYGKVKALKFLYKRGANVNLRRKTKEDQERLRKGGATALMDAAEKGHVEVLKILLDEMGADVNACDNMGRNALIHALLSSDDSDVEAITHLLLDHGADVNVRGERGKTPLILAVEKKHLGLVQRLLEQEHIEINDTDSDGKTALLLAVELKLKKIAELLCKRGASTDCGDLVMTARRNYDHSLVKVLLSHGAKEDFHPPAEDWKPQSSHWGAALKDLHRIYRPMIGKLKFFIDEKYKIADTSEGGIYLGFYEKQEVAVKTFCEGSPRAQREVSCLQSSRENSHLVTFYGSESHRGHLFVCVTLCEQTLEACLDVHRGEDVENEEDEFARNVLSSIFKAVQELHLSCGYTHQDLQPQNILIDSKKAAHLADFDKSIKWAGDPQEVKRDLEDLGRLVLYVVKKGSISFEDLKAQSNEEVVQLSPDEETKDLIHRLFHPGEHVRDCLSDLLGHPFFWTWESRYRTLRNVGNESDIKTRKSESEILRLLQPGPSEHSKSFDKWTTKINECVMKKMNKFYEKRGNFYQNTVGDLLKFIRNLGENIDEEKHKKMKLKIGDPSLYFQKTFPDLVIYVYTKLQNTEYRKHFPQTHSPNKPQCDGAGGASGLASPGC
Experimental: Co-Immunoprecipitation of pre-miR-2I and RNase L. Approximately 20,000 cpm of 32P 5′-end labeled WT or mutant pre-miR-21 or an RNA construct where the A-bulge was mutated to a base pair (5′-[…] UGGGCUGU-3′) was folded in 1× RNase L Assay Buffer for 1 min at 95° C. and cooled on ice for 10 min. Following cooling, β-mercaptoethanol (7 mM), ATP (50 μM), and MgCl2 (1 mM) were added to the solution. The solution was aliquoted, and compounds were incubated in solution for 15 min (1% DMSO final concentration). […] Beads were then washed with 1×PBS supplemented with 0.02% (v/v) Tween-20. Radioactive signal in the supernatant and associated with the beads was quantified by a Beckman Coulter LS6500 Liquid Scintillation Counter. Relative RNA enrichment was calculated by comparing the radioactive signal associated with beads compared to the total radioactive signal from the beads plus the supernatant.

[1] = tested on: phosphorylation of extracellular signal-regulated kinase (ERK); assay: Western blot of pERK versus ERK (RTK signaling); assay type: cell-based; settings: CRISPR-Control sgRNA MDA-MB-231 cells
Experimental: Quantification of Protein Levels by Western Blotting. MDA-MB-231 cells were treated as described in “Cell Culture.” After treatment, the medium was removed, and the cells were washed with 1× Dulbecco's phosphate-buffered saline (DPBS). Total protein was extracted using Mammalian Protein Extraction Reagent (M-PER, Thermo Scientific) according to the manufacturer's protocol. Protein concentration was measured using a Pierce Micro BCA Protein Assay kit (Fisher Scientific). Approximately 20 μg total protein was loaded onto a Tris-glycine gel with a 5% polyacrylamide stacking layer and a 10% polyacrylamide resolving layer. The gel was run at 140 V for ˜1.5 h in 1× Running Buffer (25 mM Tris base, pH 8.3, 190 mM glycine, and 0.1% (w/v) SDS). After electrophoresis, the protein was transferred to a PVDF membrane using 1× Transfer Buffer (25 mM Tris base, pH 8.3, 190 mM glycine, and 20% (v/v) methanol). The membrane was then washed with 1×TBST (Tris-buffered saline with 0.1% (v/v) Tween 20) and blocked in a solution of 5% (w/v) milk in 1×TBST for 30 min with shaking at room temperature. The membrane was then incubated overnight at 4° C. in a solution of primary antibody diluted in 1×TBST containing 5% (w/v) milk. […]

Q: `CNC(=O)[C@H](c1ccccc1)N(C)Cc1ccc(-c2cccc(-c3sccc3NC(=O)CCOCCOCCOCCC(=O)NCCN3CCN(c4ccc5nc(-c6c(N)c7c(F)cccc7[nH]c6=O)[nH]c5c4)CC3)c2)cc1` [RiboTAC 7, (S)—N-(2-(4-(2-(4-amino-5-fluoro-2-oxo-1,2-dihydroquinolin-3-yl)-1H-benzo[d]imidazol-6-yl)piperazin-1-yl)ethyl)-3-(2-(2-(3-((2-(4′-((methyl(2-(methylamino)-2-oxo-1-phenylethyl)amino)methyl)-[1,1′-biphenyl]-3-yl)thiophen-3-yl)amino)-3-oxopropoxy)ethoxy)ethoxy)propanamide] was tested. Which Kd (pre-miR-21) did it give?
A: 4.6 ± 2.1 µM

Q: And the “co-immunoprecipitation of RNA with RNase L” value (pre-miR-21 and RNase L)?
A: pulled down with RNase L

Q: What about the “effect on the levels of ERK or pERK” value [1] of the same compound?
A: no effect
